Source: US9937234B2, “Compositions and methods for using and identifying antimicrobial agents” (priority 2013, dated 2018)
Entries after “also recorded” stand apart in the source; their conditions may differ.

Legend:
[1] = tested on: B. anthracis Sterne strain bacilli; assay type: cell-based, Bacillus anthracis
[2] = tested on: B. anthracis Sterne strain spores; assay type: cell-based, Bacillus anthracis
[3] = tested on: E. coli transposon mutants Tnx 6 and Tnx 15; assay: Secondary screen of E. coli transposon mutants (cfu/mL); assay type: cell-based, Escherichia coli; details: 6 μg/mL for 2 h
[4] = tested on: E. coli parent strain (BW25113); assay: Antimicrobial assay against E. coli parent strain (cfu/mL); assay type: cell-based, Escherichia coli
[5] = tested on: E. coli ΔaceE; assay: Antimicrobial assay against E. coli ΔaceE (cfu/mL); assay type: cell-based, Escherichia coli; details: 2 h
[6] = tested on: E. coli ΔaceE, ΔaceF and ΔlpdA; assay: Antimicrobial assay against E. coli PDHc subunit deletion mutants (cfu/mL); assay type: cell-based, Escherichia coli; details: concentrations as high as 48 μg/mL; 2 h

Molecule | antimicrobial activity against the vegetative form (bacilli) [1] | effect on spore form / spore germination [2] | hierarchy of activity in ability to kill bacilli and block spore germination [1] | hierarchy of direct antimicrobial activity [1] | also measured
CCL2 [reference compound] | no antimicrobial activity | no antimicrobial activity | – | – | –
human CXCL10 | directly kill vegetative cells; also recorded: antimicrobial activity against the vegetative form | direct inhibitory effects on spore germination; also recorded: spore germination was blocked or reduced | CXCL10>CXCL9>CXCL11 | hCXCL10>hCXCL9>hCXCL11 | susceptibility of Tnx 6 and Tnx 15 in relation to the parent strain [3]: significantly decreased susceptibility; effect on parent strain ([4]; 6 μg/mL): not entirely killed; effect on parent strain ([4]; 10 μg/mL for 2 hours): killed; effect on parent strain ([4]; 36 μg/mL (4.2 μM) and 48 μg/mL (5.6 μM)): killed; susceptibility of parent strain complemented with empty vector or aceE vector ([4]; pBR322 or pUVA411, increasing concentrations, 2 h): remained similarly susceptible; EC50 value [1]: 4 to 6 µg/mL; EC50 value, killing effect [1]: 0.33 µg/mL; more potent killing effect, stationary vs exponential phase [1]: > 10 fold; susceptibility of ΔaceE ([5]; increasing concentrations, compared to parent strain): significantly less susceptible; also recorded: exhibits resistance; also recorded: resistant; susceptibility of ΔaceE complemented with aceE ([5]; plasmid pUVA411 (aceE)): restored susceptibility; also recorded: restores the parent strain susceptibility phenotype; susceptibility of ΔaceE, ΔaceF and ΔlpdA deletion mutants [6]: equally resistant
CCL5 [reference compound] | no antimicrobial activity | no antimicrobial activity | – | – | –
human CXCL9 | directly kill vegetative cells; also recorded: antimicrobial activity against the vegetative form | direct inhibitory effects on spore germination; also recorded: spore germination was blocked or reduced | CXCL10>CXCL9>CXCL11 | hCXCL10>hCXCL9>hCXCL11 | –
murine CXCL11 (protein, listed as Mus musculus) QGFLMFKQGRCLCIGPGMKAVKMAEIEKASVIYPSNGCDKVEVIVTMKAHKRQRCLDPRSKQARLIMQAIEKKNF | – | – | CXCL9>CXCL10>CXCL11 | mCXCL9>mCXCL10>mCXCL11 | –
human CXCL11 (protein, listed as Homo sapiens) QGFPMFKRGRCLCIGPGVKAVKVADIEKASIMYPSNNCDKIEVIITLKENKGQRCLNPKSKQARLIIKKVERKNF | directly kill vegetative cells; also recorded: antimicrobial activity against the vegetative form | direct inhibitory effects on spore germination; also recorded: spore germination was blocked or reduced | CXCL10>CXCL9>CXCL11 | hCXCL10>hCXCL9>hCXCL11 | –
murine CXCL9 (protein, listed as Mus musculus) KSAVLFLLGIIFLEQCGVRGTLVIRNARCSCISTSRGTIHYKSLKDLKQFAPSPNCNKTEIIATLKNGDQTCLDPDSANVKKLMKEWE | – | – | CXCL9>CXCL10>CXCL11 | mCXCL9>mCXCL10>mCXCL11 | –
murine CXCL10 (protein, listed as Mus musculus) MNPSAAVIFCLILLGLSGTQGIPLARTVRCNCIHIDDGPVRMRAIGKLEIIPASLSCPRVEIIATMKKNDEQRCLNPESKTIKNLMKAFSQKRSKRAP | – | – | CXCL9>CXCL10>CXCL11 | mCXCL9>mCXCL10>mCXCL11 | –
